Reference: the NIST ThermoML archive (doi:10.1021/je900974u)

Legend:
[1] = Crystal
[2] = Molar enthalpy of transition or fusion; settings: Crystal; Adiabatic calorimetry
[3] = molar heat capacity at constant pressure; settings: 101.33 kPa, Liquid, Vacuum adiabatic calorimetry

CCCC[N+]1(C)CCCC1.O=S(=O)([N-]S(=O)(=O)C(F)(F)F)C(F)(F)F
Settings	Molar enthalpy of transition or fusion [kcal/mol]	Triple point temperature [K]
[1]	–	265.65
[2]	5.234	–

[3]
Settings	molar heat capacity at constant pressure [J/K/mol]
237.44 K	546.8
239.5 K	548
241.39 K	549
243.28 K	550.7
245.17 K	552.2
247.06 K	553.5
248.95 K	554.6
250.84 K	556
252.73 K	557.3
254.62 K	558.7
256.51 K	559.6
258.4 K	561.5
260.29 K	562.1
262.04 K	563.9
262.18 K	563.5
264.07 K	565.2
264.1 K	565.2
265.99 K	566.6
267.88 K	567.6
269.77 K	568.9
271.66 K	570.2
273.55 K	571.6
275.44 K	572.9
277.33 K	574.2
279.22 K	575.3
281.11 K	576.6
283 K	577.9
284.89 K	579.2
286.78 K	580.2
288.67 K	581.4
290.56 K	582.8
292.45 K	584
294.34 K	585.1
296.23 K	586.3
298.12 K	588
300.01 K	589
301.9 K	590.6
303.79 K	591.8
305.68 K	593
307.57 K	594.5
309.46 K	595.6
311.34 K	596.7
313.23 K	598.2
315.12 K	599.6
317.02 K	600.8
318.92 K	602.2
320.82 K	603.4
322.71 K	604.5
324.61 K	606.1
326.51 K	607.5
328.41 K	608.6
330.31 K	609.9
332.21 K	611.4
334.11 K	612.9
336.01 K	614.2
337.91 K	615.4
339.81 K	616.8
341.72 K	618.2
343.62 K	619.5
345.52 K	621
347.44 K	622.4
349.34 K	623.9
351.25 K	625.2
353.16 K	626.7
355.06 K	627.9
356.97 K	629.2
358.87 K	630.9
360.78 K	632.1
362.69 K	633.7
364.59 K	635
366.5 K	636.1
368.4 K	638
